Source: ChEMBL document CHEMBL3044572, “Discovery of 2-(4-cyano-3-trifluoromethylphenyl amino)-4-(4-quinazolinyloxy)-6-piperazinyl(piperidinyl)-s-triazines as potential antibacterial agents” (2012)
In brackets after ≈: the same amount, converted by molar mass. Activity calls are given as the source filed them. The calls are words filed in the database; no cut-off is given here.

Tests used:
[1] = test system: Candida albicans; experiment: Antimicrobial activity against Candida albicans MTCC 183 by agar streak dilution method; format: functional
[2] = test system: Aspergillus niger; experiment: Antimicrobial activity against Aspergillus niger MTCC 282 by paper-disk diffusion method; format: functional
[3] = test system: Shigella flexneri; experiment: Antimicrobial activity against Shigella flexneri MTCC 1457 at 100 ug/ml by paper-disk diffusion method; format: functional, organism-based
[4] = test system: Klebsiella pneumoniae; experiment: Antimicrobial activity against Klebsiella pneumoniae MTCC 109 at 100 ug/ml by paper disk diffusion method; format: functional, organism-based
[5] = test system: Escherichia coli; experiment: Antimicrobial activity against Escherichia coli MTCC 739 at 100 ug/ml by paper-disk diffusion method; format: functional, organism-based
[6] = test system: Bacillus cereus; experiment: Antimicrobial activity against Bacillus cereus MTCC 619 at 100 ug/ml by paper disk diffusion method; format: functional, organism-based
[7] = test system: Proteus vulgaris; experiment: Antimicrobial activity against Proteus vulgaris MTCC 1771 by paper disk diffusion method; format: functional
[8] = test system: Salmonella typhi; experiment: Antimicrobial activity against Salmonella enterica subsp. enterica serovar Typhi MTCC 733 by paper disk diffusion method; format: functional
[9] = test system: Pseudomonas aeruginosa; experiment: Antimicrobial activity against Pseudomonas aeruginosa MTCC 741 by paper disk diffusion method; format: functional
[10] = test system: Staphylococcus aureus; experiment: Antimicrobial activity against Staphylococcus aureus MTCC 96 by paper-disk diffusion method; format: functional
[11] = test system: Aspergillus niger; experiment: Antimicrobial activity against Aspergillus niger MTCC 282 by agar streak dilution method; format: functional
[12] = test system: Proteus vulgaris; experiment: Antimicrobial activity against Proteus vulgaris MTCC 1771 by agar streak dilution method; format: functional
[13] = test system: Salmonella typhi; experiment: Antimicrobial activity against Salmonella enterica subsp. enterica serovar Typhi MTCC 733 by agar streak dilution method; format: functional
[14] = test system: Pseudomonas aeruginosa; experiment: Antimicrobial activity against Pseudomonas aeruginosa MTCC 741 by agar streak dilution method; format: functional
[15] = test system: Staphylococcus aureus; experiment: Antimicrobial activity against Staphylococcus aureus MTCC 96 by agar streak dilution method; format: functional
[16] = test system: Mycobacterium tuberculosis; experiment: Antimicrobial activity against Mycobacterium tuberculosis H37Rv at 100 ug/ml by BACTEC MGIT method; format: functional, organism-based
[17] = test system: Mycobacterium tuberculosis; experiment: Antimicrobial activity against Mycobacterium tuberculosis H37Rv by Lowenstein and Jensen method; format: functional; conditions: for MIC: Mycobacterium tuberculosis, H37Rv
[18] = test system: Mycobacterium tuberculosis; experiment: Antimicrobial activity against Mycobacterium tuberculosis H37Rv by BACTEC MGIT method; format: functional; conditions: Mycobacterium tuberculosis, H37Rv
[19] = test system: Aspergillus fumigatus; experiment: Antimicrobial activity against Aspergillus fumigatus MTCC 343 at 100 ug/ml by paper-disk diffusion method; format: functional, organism-based
[20] = test system: Aspergillus clavatus; experiment: Antimicrobial activity against Aspergillus clavatus MTCC 1323 at 100 ug/ml by paper disk diffusion method; format: functional, organism-based
[21] = test system: Candida albicans; experiment: Antimicrobial activity against Candida albicans MTCC 183 by paper-disk diffusion method; format: functional
[22] = test system: Proteus vulgaris; experiment: Antimicrobial activity against Proteus vulgaris MTCC 1771 at 100 ug/ml by paper disk diffusion method; format: functional, organism-based
[23] = test system: Salmonella typhi; experiment: Antimicrobial activity against Salmonella enterica subsp. enterica serovar Typhi MTCC 733 at 100 ug/ml by paper disk diffusion method; format: functional, organism-based
[24] = test system: Pseudomonas aeruginosa; experiment: Antimicrobial activity against Pseudomonas aeruginosa MTCC 741 at 100 ug/ml by paper disk diffusion method; format: functional, organism-based
[25] = test system: Staphylococcus aureus; experiment: Antimicrobial activity against Staphylococcus aureus MTCC 96 at 100 ug/ml by paper-disk diffusion method; format: functional, organism-based
[26] = test system: Shigella flexneri; experiment: Antimicrobial activity against Shigella flexneri MTCC 1457 by paper disk diffusion method; format: functional
[27] = test system: Shigella flexneri; experiment: Antimicrobial activity against Shigella flexneri MTCC 1457 by agar streak dilution method; format: functional
[28] = test system: Candida albicans; experiment: Antimicrobial activity against Candida albicans MTCC 183 at 100 ug/ml by paper-disk diffusion method; format: functional, organism-based
[29] = test system: Aspergillus niger; experiment: Antimicrobial activity against Aspergillus niger MTCC 282 at 100 ug/ml by paper-disk diffusion method; format: functional, organism-based
[30] = test system: Klebsiella pneumoniae; experiment: Antimicrobial activity against Klebsiella pneumoniae MTCC 109 by paper disk diffusion method; format: functional
[31] = test system: Escherichia coli; experiment: Antimicrobial activity against Escherichia coli MTCC 739 by paper disk diffusion method; format: functional
[32] = test system: Klebsiella pneumoniae; experiment: Antimicrobial activity against Klebsiella pneumoniae MTCC 109 by agar streak dilution method; format: functional
[33] = test system: Escherichia coli; experiment: Antimicrobial activity against Escherichia coli MTCC 739 by agar streak dilution method; format: functional
[34] = test system: Aspergillus fumigatus; experiment: Antimicrobial activity against Aspergillus fumigatus MTCC 343 by paper-disk diffusion method; format: functional
[35] = test system: Bacillus cereus; experiment: Antimicrobial activity against Bacillus cereus MTCC 619 by paper disk diffusion method; format: functional
[36] = test system: Aspergillus fumigatus; experiment: Antimicrobial activity against Aspergillus fumigatus MTCC 343 by agar streak dilution method; format: functional
[37] = test system: Bacillus cereus; experiment: Antimicrobial activity against Bacillus cereus MTCC 619 by agar streak dilution method; format: functional

How did the MIC [1] turn out when `N#Cc1ccc(Nc2nc(Oc3ncnc4ccccc34)nc(N3CCCCC3)n2)cc1C(F)(F)F` was run?
The MIC was 100 µg/mL (≈ 203 µM).

What about the “inhibition zone (IZ)” value [2] of the same compound?
Its value is 21 mm.

What about the “inhibition zone (IZ)” value [3] of the same compound?
Its value is “inactive”.

What about the “inhibition zone (IZ)” value [4] of the same compound?
The value was “inactive”.

And the “inhibition zone (IZ)” value [5]?
Its value is “inactive”.

And the “inhibition zone (IZ)” value [6]?
The value was “inactive”.

What about the “inhibition zone (IZ)” value [7] of the same compound?
Its value is 20 mm.

And the “inhibition zone (IZ)” value [8]?
Its value is 20 mm.

What about the “inhibition zone (IZ)” value [9] of the same compound?
The value was 22 mm.

What about the “inhibition zone (IZ)” value [10] of the same compound?
The value was 22 mm.

And the MIC [11]?
Its MIC is 100 µg/mL (≈ 203 µM).

And the MIC [12]?
The MIC was 100 µg/mL (≈ 203 µM).

And the MIC [13]?
Its MIC is 100 µg/mL (≈ 203 µM).

And the MIC [14]?
The MIC was 100 µg/mL (≈ 203 µM).

What about the MIC [15] of the same compound?
The MIC was 100 µg/mL (≈ 203 µM).

What about the inhibition [16] of the same compound?
The inhibition was “inactive”.

What about the “inhibition (percent inhibition)” value [17] of the same compound?
The value was 94%.

And the MIC [17]?
The MIC was 500 µg/mL (≈ 1020 µM).

What about the MIC [18] of the same compound?
Its MIC is over 6.25 µg/mL.

And the “inhibition zone (IZ)” value [19]?
Its value is “inactive”.

And the “inhibition zone (IZ)” value [20]?
The value was “inactive”.

What about the “inhibition zone (IZ)” value [21] of the same compound?
Its value is 20 mm.

`CN1CCN(c2nc(Nc3ccc(C#N)c(C(F)(F)F)c3)nc(Oc3ncnc4ccccc34)n2)CC1` was tested. Which “inhibition zone (IZ)” value [22] did it give?
Its value is “inactive”.

And the “inhibition zone (IZ)” value [23]?
The value was “inactive”.

And the “inhibition zone (IZ)” value [4]?
The value was “inactive”.

What about the “inhibition zone (IZ)” value [5] of the same compound?
Its value is “inactive”.

And the “inhibition zone (IZ)” value [24]?
The value was “inactive”.

And the “inhibition zone (IZ)” value [6]?
The value was “inactive”.

And the “inhibition zone (IZ)” value [25]?
The value was “inactive”.

And the “inhibition zone (IZ)” value [26]?
The value was 22 mm.

What about the MIC [27] of the same compound?
Its MIC is 100 µg/mL (≈ 197 µM).

And the inhibition [16]?
Its inhibition is “inactive”.

What about the “inhibition (percent inhibition)” value [17] of the same compound?
The value was 95%.

And the MIC [17]?
Its MIC is 250 µg/mL (≈ 493 µM).

What about the “inhibition zone (IZ)” value [28] of the same compound?
The value was “inactive”.

And the MIC [18]?
Its MIC is over 6.25 µg/mL.

What about the “inhibition zone (IZ)” value [19] of the same compound?
The value was “inactive”.

What about the “inhibition zone (IZ)” value [20] of the same compound?
The value was “inactive”.

What about the “inhibition zone (IZ)” value [29] of the same compound?
The value was “inactive”.

Which results are given for `CCN1CCN(c2nc(Nc3ccc(C#N)c(C(F)(F)F)c3)nc(Oc3ncnc4ccccc34)n2)CC1`?
MIC [1]: 100 µg/mL (≈ 192 µM); inhibition zone (IZ) [22]: inactive; inhibition zone (IZ) [3]: inactive; inhibition zone (IZ) [24]: inactive; inhibition zone (IZ) [6]: inactive; inhibition zone (IZ) [8]: 23 mm; inhibition zone (IZ) [30]: 19 mm; inhibition zone (IZ) [31]: 21 mm; inhibition zone (IZ) [10]: 23 mm; MIC [32]: 100 µg/mL (≈ 192 µM); MIC [13]: 100 µg/mL (≈ 192 µM); MIC [15]: 100 µg/mL (≈ 192 µM); inhibition [16]: inactive; MIC [33]: 100 µg/mL (≈ 192 µM); inhibition (percent inhibition) [17]: 95%; MIC [17]: 500 µg/mL (≈ 959 µM); MIC [18]: > 6.25 µg/mL; inhibition zone (IZ) [19]: inactive; inhibition zone (IZ) [20]: inactive; inhibition zone (IZ) [29]: inactive; inhibition zone (IZ) [21]: 21 mm

With `N#Cc1ccc(Nc2nc(Oc3ncnc4ccccc34)nc(N3CCOCC3)n2)cc1C(F)(F)F` as the compound, how does the MIC [1] read?
The MIC was 100 µg/mL (≈ 202 µM).

And the “inhibition zone (IZ)” value [2]?
The value was 22 mm.

What about the “inhibition zone (IZ)” value [34] of the same compound?
Its value is 21 mm.

What about the “inhibition zone (IZ)” value [22] of the same compound?
The value was “inactive”.

And the “inhibition zone (IZ)” value [3]?
Its value is “inactive”.

And the “inhibition zone (IZ)” value [4]?
Its value is “inactive”.

What about the “inhibition zone (IZ)” value [8] of the same compound?
The value was 22 mm.

And the “inhibition zone (IZ)” value [9]?
Its value is 22 mm.

And the “inhibition zone (IZ)” value [35]?
Its value is 23 mm.

What about the “inhibition zone (IZ)” value [31] of the same compound?
Its value is 21 mm.

And the “inhibition zone (IZ)” value [10]?
Its value is 22 mm.

What about the MIC [36] of the same compound?
Its MIC is 100 µg/mL (≈ 202 µM).

What about the MIC [11] of the same compound?
Its MIC is 100 µg/mL (≈ 202 µM).

And the MIC [13]?
The MIC was 100 µg/mL (≈ 202 µM).

What about the MIC [14] of the same compound?
Its MIC is 100 µg/mL (≈ 202 µM).

What about the MIC [15] of the same compound?
Its MIC is 100 µg/mL (≈ 202 µM).

And the MIC [37]?
Its MIC is 100 µg/mL (≈ 202 µM).

And the inhibition [16]?
Its inhibition is “inactive”.

And the MIC [33]?
The MIC was 100 µg/mL (≈ 202 µM).

What about the “inhibition (percent inhibition)” value [17] of the same compound?
Its value is 98%.

And the MIC [17]?
The MIC was 100 µg/mL (≈ 202 µM).

And the MIC [18]?
Its MIC is over 6.25 µg/mL.

And the “inhibition zone (IZ)” value [20]?
Its value is “inactive”.

And the “inhibition zone (IZ)” value [21]?
The value was 20 mm.

With `N#Cc1ccc(Nc2nc(Oc3ncnc4ccccc34)nc(N3CCN(c4ccccc4)CC3)n2)cc1C(F)(F)F` as the compound, how does the MIC [1] read?
The MIC was 100 µg/mL (≈ 176 µM).

What about the “inhibition zone (IZ)” value [3] of the same compound?
Its value is “inactive”.

And the “inhibition zone (IZ)” value [23]?
Its value is “inactive”.

What about the “inhibition zone (IZ)” value [4] of the same compound?
The value was “inactive”.

What about the “inhibition zone (IZ)” value [5] of the same compound?
Its value is “inactive”.

And the “inhibition zone (IZ)” value [24]?
The value was “inactive”.

What about the “inhibition zone (IZ)” value [6] of the same compound?
The value was “inactive”.

And the “inhibition zone (IZ)” value [25]?
The value was “inactive”.

What about the “inhibition zone (IZ)” value [7] of the same compound?
Its value is 23 mm.

What about the MIC [12] of the same compound?
The MIC was 50 µg/mL (≈ 87.8 µM).

And the inhibition [16]?
The inhibition was “inactive”.

What about the “inhibition (percent inhibition)” value [17] of the same compound?
Its value is 94%.

What about the MIC [17] of the same compound?
The MIC was 1000 µg/mL (≈ 1760 µM).

What about the MIC [18] of the same compound?
Its MIC is over 6.25 µg/mL.

And the “inhibition zone (IZ)” value [19]?
The value was “inactive”.

And the “inhibition zone (IZ)” value [20]?
The value was “inactive”.

And the “inhibition zone (IZ)” value [29]?
The value was “inactive”.

And the “inhibition zone (IZ)” value [21]?
The value was 19 mm.
